Laboratory results as given in ChEMBL document CHEMBL1201862, “PubChem BioAssay data set” (2004).
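Where inhibition never reached the appropriate level, the endpoint shown equals the highest concentration tested. Otherwise, values were interpolated linearly from a five-concentration, 48-hour dose response in 96-well plates. Abbreviation: GI50, concentration required for 50% inhibition of growth.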 Active and inactive are the calls of the source. No stated cut-off is given here; in the data, active = GI50 up to about 1.1 µM and inactive = higher.

Experiments:
Assay in all cases: growth of human tumour cells (NCI), 48 h
786-0 = system: 786-0
A498 = system: A498
ACHN = system: ACHN
HCC 2998 = system: HCC 2998
HOP-92 = system: HOP-92
Hs-578T = system: Hs-578T
K562 = system: K562
KM12 = system: KM12
LOX IMVI = system: LOX IMVI
MCF7 = system: MCF7
MDA-N = system: MDA-N
NCI-H522 = system: NCI-H522
OVCAR-3 = system: OVCAR-3
SK-OV-3 = system: SK-OV-3
SNB-19 = system: SNB-19
U-251 = system: U-251
UACC-257 = system: UACC-257
UACC-62 = system: UACC-62
MOLT-4 = system: MOLT-4
SF-539 = system: SF-539

SMILES | GI50 (786-0) | GI50 (A498) | GI50 (ACHN) | GI50 (HCC 2998) | GI50 (HOP-92) | GI50 (Hs-578T) | GI50 (K562) | GI50 (KM12) | GI50 (LOX IMVI) | GI50 (MCF7) | GI50 (MDA-N) | GI50 (NCI-H522) | GI50 (OVCAR-3) | GI50 (SK-OV-3) | GI50 (SNB-19) | GI50 (U-251) | GI50 (UACC-257) | GI50 (UACC-62) | GI50 (MOLT-4) | GI50 (SF-539)
CCCn1cnc2c(SCC(=O)O)nc(N)nc21 | > 100 µM (inactive) | > 100 µM (inactive) | > 100 µM (inactive) | > 100 µM (inactive) | > 100 µM (inactive) | > 100 µM (inactive) | > 100 µM (inactive) | > 100 µM (inactive) | > 100 µM (inactive) | > 100 µM (inactive) | > 100 µM (inactive) | > 100 µM (inactive) | > 100 µM (inactive) | > 100 µM (inactive) | > 100 µM (inactive) | > 100 µM (inactive) | > 100 µM (inactive) | > 100 µM (inactive) |  | 
CCN(CC)CCCNc1[nH]c2ccccc2c2nc3ccc(OC)cc3c1-2 | 1.16 µM (inactive) | 2.12 µM (inactive) | 4.27 µM (inactive) | 1.12 µM (inactive) | 2.13 µM (inactive) | 1.78 µM (inactive) | 1.27 µM (inactive) | 0.695 µM (active) | 1.11 µM (active) | 1.04 µM (active) | 1.56 µM (inactive) | 1.46 µM (inactive) | 3.31 µM (inactive) | 3.08 µM (inactive) | 1.59 µM (inactive) | 1.77 µM (inactive) | 1.79 µM (inactive) | 4.68 µM (inactive) | 0.279 µM (active) | 2.16 µM (inactive)
COc1cc(C=C2C(C)=NN(c3cccc(Cl)c3)C23C(Cl)C(=O)N3c2nc3ccccc3s2)ccc1O (centres undefined) | 19.8 µM (inactive) | 17.9 µM (inactive) | 19.2 µM (inactive) | 2.56 µM (inactive) | 6.7 µM (inactive) | 7.36 µM (inactive) | 3.61 µM (inactive) | 5.85 µM (inactive) | 18.1 µM (inactive) | 28.2 µM (inactive) | 16.3 µM (inactive) | 3.5 µM (inactive) | 26.4 µM (inactive) | 26.3 µM (inactive) |  | 15 µM (inactive) | 23.1 µM (inactive) |  | 0.461 µM (active) | 35.4 µM (inactive)
N#CC12C(=O)N3C(=NC(c4ccccc4)NC3c3ccccc3)C1(C#N)C(c1ccccc1)NC1=C2CCC1 (centres undefined) | > 100 µM (inactive) | > 100 µM (inactive) | > 100 µM (inactive) | > 100 µM (inactive) | > 100 µM (inactive) | > 100 µM (inactive) | 63.5 µM (inactive) | > 100 µM (inactive) | > 100 µM (inactive) | > 100 µM (inactive) | > 100 µM (inactive) | > 100 µM (inactive) | > 100 µM (inactive) | > 100 µM (inactive) | > 100 µM (inactive) | > 100 µM (inactive) | > 100 µM (inactive) | > 100 µM (inactive) | > 100 µM (inactive) | 
O=C(NCc1ccccc1Cl)c1c(O)c2ccccc2[nH]c1=O | 16.8 µM (inactive) | 15.9 µM (inactive) | > 10 µM (inactive) | 33.3 µM (inactive) | 27.9 µM (inactive) | 25.9 µM (inactive) | > 100 µM (inactive) | > 100 µM (inactive) | > 100 µM (inactive) | > 100 µM (inactive) | 79.1 µM (inactive) | > 100 µM (inactive) | 32 µM (inactive) |  | 39.4 µM (inactive) | 18.7 µM (inactive) | > 100 µM (inactive) |  | > 100 µM (inactive) | > 100 µM (inactive)
COC(=O)c1c(O)ccc2c1C1(Cc3ccccc3C1=O)C(O)O2 (centres undefined) | 14.1 µM (inactive) | > 100 µM (inactive) | 14.9 µM (inactive) | 31.2 µM (inactive) | 16.6 µM (inactive) | 23.3 µM (inactive) | 12.8 µM (inactive) | 25.4 µM (inactive) | 19.5 µM (inactive) | 12.6 µM (inactive) | 13.7 µM (inactive) | 3.86 µM (inactive) | 18.6 µM (inactive) | 20.2 µM (inactive) | 43.4 µM (inactive) | 20.5 µM (inactive) | > 100 µM (inactive) |  | 5.04 µM (inactive) | 20.1 µM (inactive)
CCOc1cc(NC(C)=O)ccc1C(=O)NN1C(=O)C(Cl)C1c1ccc(O)c(OC)c1 (centres undefined) | 13.1 µM (inactive) | 14.6 µM (inactive) | 16.6 µM (inactive) | 17.2 µM (inactive) | 16.4 µM (inactive) | 16.7 µM (inactive) | 5.11 µM (inactive) | 17.6 µM (inactive) | 2.17 µM (inactive) | 13.8 µM (inactive) | 14.2 µM (inactive) | 6.35 µM (inactive) | 20.2 µM (inactive) | 17.3 µM (inactive) | 15.8 µM (inactive) |  | 11.8 µM (inactive) | 12.3 µM (inactive) | 5.3 µM (inactive) | 11.4 µM (inactive)
c1csc(-c2cc(-c3cccs3)c(-c3cccs3)s2)c1 | > 100 µM (inactive) | > 100 µM (inactive) | > 100 µM (inactive) | 58.5 µM (inactive) | 91.8 µM (inactive) | > 100 µM (inactive) | 79.1 µM (inactive) | 46.5 µM (inactive) |  | 18.5 µM (inactive) | 32 µM (inactive) | 69.3 µM (inactive) | > 100 µM (inactive) | > 100 µM (inactive) | > 100 µM (inactive) | 75.5 µM (inactive) | 55.3 µM (inactive) | 54.2 µM (inactive) | 36.1 µM (inactive) | > 100 µM (inactive)
CC(=O)C(=[N+]=[N-])C(=O)OCCOC(=O)C(=[N+]=[N-])C(C)=O | > 1 µM (active) | > 1 µM (active) | > 1 µM (active) | > 1 µM (active) | > 1 µM (active) | > 1 µM (active) | > 1 µM (active) | > 1 µM (active) | > 1 µM (active) | > 1 µM (active) | > 1 µM (active) |  | > 1 µM (active) | > 1 µM (active) | > 1 µM (active) | > 1 µM (active) | > 1 µM (active) | > 1 µM (active) | > 1 µM (active) | > 1 µM (active)
N#Cc1c(-c2ccccc2)c2c([nH]c1=O)-c1cc([N+](=O)[O-])ccc1CCC2 | 43.2 µM (inactive) | 19 µM (inactive) | 24.8 µM (inactive) | 20.7 µM (inactive) | 16.4 µM (inactive) | 68.2 µM (inactive) | 34.1 µM (inactive) | 32.9 µM (inactive) | 25.5 µM (inactive) | 27.7 µM (inactive) | 36.5 µM (inactive) | 27.5 µM (inactive) | 21.2 µM (inactive) | 36.3 µM (inactive) | 36.7 µM (inactive) | 33.3 µM (inactive) | 31.1 µM (inactive) | 17.5 µM (inactive) | 25 µM (inactive) | 27.7 µM (inactive)
N#Cc1c(N)c(-c2ccc(Cl)cc2)c(F)c2ccccc12 | > 100 µM (inactive) | > 100 µM (inactive) | > 100 µM (inactive) | > 100 µM (inactive) | 3.98 µM (inactive) | 7.35 µM (inactive) | > 100 µM (inactive) | > 100 µM (inactive) | 94.2 µM (inactive) | 6.49 µM (inactive) | > 100 µM (inactive) | > 100 µM (inactive) | > 100 µM (inactive) | > 100 µM (inactive) | > 100 µM (inactive) | 96.4 µM (inactive) | > 100 µM (inactive) | > 100 µM (inactive) |  | > 100 µM (inactive)
C[C@]1(CO)[C@H]2CC[C@@]34C=C[C@@](CO)(CC[C@H]3[C@]2(C)CC[C@H]1O)C4 | 43.9 µM (inactive) | > 100 µM (inactive) | 31.9 µM (inactive) | 38.3 µM (inactive) | > 100 µM (inactive) | 55.7 µM (inactive) |  | 38.1 µM (inactive) | 48.4 µM (inactive) | 59.4 µM (inactive) | 34.2 µM (inactive) | 64.4 µM (inactive) | > 100 µM (inactive) | 38.6 µM (inactive) | 15 µM (inactive) | 63 µM (inactive) | 87.5 µM (inactive) | 94.6 µM (inactive) | 8.93 µM (inactive) | 96.2 µM (inactive)
CC(C)(C)OC(=O)NCC(c1c[nH]c2ccc(Br)cc12)c1c[nH]c2ccc(Br)cc12 | 3.85 µM (inactive) | 14.5 µM (inactive) | 5.96 µM (inactive) | 5.18 µM (inactive) | 3.76 µM (inactive) | 19.3 µM (inactive) | 15.9 µM (inactive) | 4.16 µM (inactive) | 7.03 µM (inactive) | 5.41 µM (inactive) | 8.63 µM (inactive) | 10.7 µM (inactive) | 4.54 µM (inactive) |  | 11.2 µM (inactive) | 6.43 µM (inactive) | 13 µM (inactive) | 11.1 µM (inactive) |  | 14.4 µM (inactive)
C=CCOn1c(C=C)nc2ccc(C)cc21 | 14 µM (inactive) | 17.1 µM (inactive) | 20.1 µM (inactive) | 18.5 µM (inactive) | 34.9 µM (inactive) | 27.2 µM (inactive) | 20.6 µM (inactive) | 17.3 µM (inactive) | 12.8 µM (inactive) | 10.1 µM (inactive) | 17.1 µM (inactive) | 15.5 µM (inactive) | 16 µM (inactive) | 35.2 µM (inactive) | 17.9 µM (inactive) | 12.5 µM (inactive) | 13.7 µM (inactive) | 13.6 µM (inactive) | 8.18 µM (inactive) | 
